Results as given in paper PMC5587797 (Nucleic Acids Research, 2017).

Columns and labels:
hTRMT10A [1] = target: hTRMT10A (Homo sapiens, UniProt Q8TBZ6); assay: biochemical
hTRMT10A [2] = target: hTRMT10A (Homo sapiens, UniProt Q8TBZ6, D210N); assay: biochemical
hTRMT10A (Homo sapiens, UniProt Q8TBZ6, D210N), sequence (Q8TBZ6 whole entry D210N): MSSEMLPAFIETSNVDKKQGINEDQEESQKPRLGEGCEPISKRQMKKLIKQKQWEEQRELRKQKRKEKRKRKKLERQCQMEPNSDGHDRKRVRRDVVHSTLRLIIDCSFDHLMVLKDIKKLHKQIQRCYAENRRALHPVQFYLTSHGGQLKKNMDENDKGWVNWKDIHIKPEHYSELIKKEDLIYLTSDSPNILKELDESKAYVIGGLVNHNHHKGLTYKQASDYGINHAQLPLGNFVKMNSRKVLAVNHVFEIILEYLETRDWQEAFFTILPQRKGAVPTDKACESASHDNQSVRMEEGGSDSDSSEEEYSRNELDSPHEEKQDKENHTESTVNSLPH

hTRMT10A (Homo sapiens, UniProt Q8TBZ6), sequence (Q8TBZ6 whole entry): as the sequence (Q8TBZ6 whole entry D210N) above, with N210D counted along it

## C[S+](CC[C@H](N)C(=O)O)C[C@H]1O[C@@H](n2cnc3c(N)ncnc32)[C@H](O)[C@@H]1O (some centres unmarked) [S-adenosyl methionine]
hTRMT10A [1]
  Kd: 17.7 ± 4 µM
hTRMT10A [2]
  Kd: 60.6 ± 10.3 µM
